Results: US9475841B2, “Melanoma antigen peptide and uses thereof” (INSERM (INSTITUT NATIONAL DE LA SANTE ET DE LA RECHERCHE …, priority 2012, dated 2016)

Key:
Type in all cases: cell-based, human
[1] = test system: MELOE-1 specific CD4+ T cells; assay: MELOE-1 CD4+ T cell responses in PBMC from healthy donors: restimulation of microcultures with overlapping peptides, CD4/TNF-α staining; conditions: for Microcultures containing MELOE-1 specific CD4+ T cells (TNF-α production): positive/tested microcultures; for donors in which CD4 responses against the region were detected: seven healthy donors
Protocol: PBMC from healthy donors were stimulated with 10 μM of MELOE-1. After 14 days, the presence of CD4 T cells specific for the different regions of MELOE-1 was assessed by restimulating cells with MELOE-12-21, MELOE-111-30, MELOE-118-37 and MELOE-126-46 peptides, followed by CD4/TNF-α double staining and flow cytometry analysis. Between brackets is indicated the mean % of TNF-α producing CD4 T cells, in positive microcultures. NA: not available.
(§1) PBMC from healthy donors or melanoma patients (2·10^5 cells/well) were cultured for 14 days with 10 μM of MELOE-1 whole antigen (46 amino acids) in RPMI medium supplemented with 8% HS, 50 IU/ml of rIL-2 (Chiron, France) and L-Glutamin, in 96-well multiplates. Microcultures were then restimulated individually with each overlapping peptide (MELOE-12-21, MELOE-111-30, MELOE-118-37, MELOE-12646 or MELOE-122-46 for melanoma patients) in the presence of 10 μg/mL brefeldin A for 5 hours and the percentage of CD4^+ specific T cells was assessed by TNF-α, IFN-γ or IL-4 intracellular staining. A negative control without peptide was included in all experiments.
Our purpose was to look for the existence of class II helper epitopes all along MELOE-1 sequence (SEQ ID NO:20), in order to document the immunogenicity of the different regions of this melanoma antigen. We stimulated 2·10^7 PBMC from seven healthy donors with MELOE-1 whole antigen and tested, after a 14-day culture period the presence of CD4 T cells specific for each region of the protein. Microcultures were screened for TNFα production by CD4+ T cells, after restimulation with four MELOE-1 derived overlapping peptides (Table I), in an autopresentation assay. […] On the contrary, the central region 18-37, containing an already described DR11-restricted epitope (24-37) located just at the end of this 20-mer peptide (Rogel et al., 2011), induced specific responses in microcultures deriving from only 2/7 donors (HD9 and HD17, both expressing the DR11 element). In these two donors, we detected 6 and 7% of positive microcultures, containing between 0.6 to 3.7% of TNFα producing CD4 T cells.

[2] = test system: CD4 T cell clone 4E2-DQβ1*0201; assay: Cytokine profile of CD4 T cell clone stimulated with cognate peptide (intracellular staining); conditions: cognate peptide 10 μM, 5 hours
Protocol: Lymphocytes were stimulated for 5 hours in the presence of brefeldin A (10 μg/mL) either with peptide alone (10 μM) in an autopresentation assay or with B-EBV or HLA-class II expressing melanoma cells pulsed 2 hours with the cognate peptide, at a ratio 1:2. In some experiments, blocking mAb against HLA-DP (clone B7.21 from Dr Charron, UMR940, Paris), HLA-DQ (clone SPVL3, Beckman Coulter) or HLA-DR (clone L243, BD Biosciences) were added at a concentration of 12.5 μg/ml. Cells were then stained with APC-conjugated anti-CD4 mAb, fixed with 4% paraformaldehyde, labeled with PE-conjugated anti-cytokine mAb and analyzed by flow cytometry.
We also documented the T helper profile of each T cell clone, by stimulating the CD4 T cell clones with the cognate peptide, and analyzing cytokine production. All the clones expressed Th1 cytokines (TNFα, IFNγ, IL2 and GM-CSF). On the contrary, these clones differ in their expression of Th2 cytokines. Indeed, the two DQ2 restricted T cell clones (9C12 and 4E2) and the DR1 restricted one (5F9) also strongly express two Th2 cytokines (IL4, and IL13), whereas the DR11-restricted T cell clone only weakly expressed IL4 (Table IV). None of the CD4 T cell expresses IL10 or IL5 at a significant level.

[3] = test system: MELOE-1 specific CD4 T cells; assay: MELOE-1 CD4+ T cell responses in PBMC from melanoma patients: restimulation with peptides, CD4/IFN-γ (Th1) and CD4/IL4 (Th2) staining; conditions: for mean % of cytokine producing CD4 T cells, in positive microcultures (IFN-γ): Th1; for mean % of cytokine producing CD4 T cells, in positive microcultures (IL4): Th2; for Th1 responses (IFN-γ positive microcultures) / Th2 responses (IL4 positive microcultures): positive/tested microcultures
Protocol: PBMC from melanoma patients were stimulated with 10 μM of MELOE-1. After 14 days, the presence of CD4 T cells specific for the different regions of MELOE-1 was assessed by restimulating cells with MELOE-12-21, MELOE-111-30 and MELOE-122-46 peptides, followed by CD4/IFN-γ double staining for the detection of Th1 responses, and by CD4/IL4 double staining for Th2 responses. Between brackets is indicated the mean % of cytokine producing CD4 T cells, in positive microcultures.
as §1
In order to confirm the immunogenicity of each MELOE-1 regions in melanoma patients, we stimulated melanoma patients PBMC with the MELOE-1 whole protein, and tested the reactivity of stimulated lymphocytes towards the three most immunogenic regions: 2-21, 11-30, and 22-46. For this study, instead of challenging microcultures with the 18-37 peptide, that appeared poorly immunogenic, we extended the C-terminus region from 26-46 to 22-46, in order to also detect responses to our previously described HLA-DR11-restricted epitope (24-37). […] We tested the induction of CD4 specific responses from MELOE-1 stimulated PBMC of […] melanoma patients. We documented CD4 responses specific for the central region of MELOE-1 (11-30) for 7/9 patients, whereas responses specific for MELOE-12-21 and MELOE-122-46 were respectively detected in 4/9 and 5/9 patients (Table III). These responses were mainly Th1 responses (IFN-g production) while less frequent Th2 responses specific for the three regions of MELOE-1 were detected in 3/9 patients for MELOE-12-21, 2/9 patients for MELOE-111-30 and 5/9 patients for MELOE-122-46 (Table III). […] Concerning Th2 responses, much less frequent, the C-term region appeared to induce more frequently the growth of IL-4 producing CD4 T cells than the two other regions (FIG. 2A). […] In summary, stimulation of patient's PBMC with MELOE-1 induced Th1 responses specific for diverse epitopes located all along the protein sequence, and among the different regions, the central region (11-30) and the C-term region (22-46) appeared to be especially immunogenic in term of frequency of responses.

[4] = donor HD9 (DPβ1*0902/1501, DQβ1*0301, DRβ1*1104/1201)
[5] = donor HD17 (DPβ1*0401/0301, DQβ1*0301/0603, DRβ1*1101/1301)
[6] = donor HD22 (DPβ1*0401/1101, DQβ1*0202, DRβ1*0701)
[7] = donor HD24 (DPβ1*0401/0101, DQβ1*0501/0602, DRβ1*0101/1501)
[8] = donor HD25 (DPβ1*0401/0402, DQβ1*0201, DRβ1*0301)
[9] = donor HD27 (DQβ1*501/0201, DRβ1*0101/0301)

PSEGAACPPWHPSERISSTL [MELOE-118-37] was tested, and the “mean % of TNF-α producing CD4 T cells, in positive microcultures” value (“mean % of TNF-α producing CD4 T cells” for short) ([1]; donor HD9) was “(1.4% ± 0.6)”, the “Microcultures containing MELOE-1 specific CD4+ T cells (TNF-α production)” value [1, 4] was 6/96 and the “mean % of TNF-α producing CD4 T cells” value ([1]; donor HD17) was “(3% ± 0.7)”. For the same sequence, the “Microcultures containing MELOE-1 specific CD4+ T cells (TNF-α production)” value [1, 5] was 7/96, the “Microcultures containing MELOE-1 specific CD4+ T cells (TNF-α production)” value [1, 6] was 0/96 and the “Microcultures containing MELOE-1 specific CD4+ T cells (TNF-α production)” value [1, 7] was 0/96. For the same sequence, the “Microcultures containing MELOE-1 specific CD4+ T cells (TNF-α production)” value [1, 8] was 0/96, the “Microcultures containing MELOE-1 specific CD4+ T cells (TNF-α production)” value [1, 9] was 0/96 and the “Microcultures containing MELOE-1 specific CD4+ T cells (TNF-α production)” value ([1]; donor HD28 (DRβ1*0301)) was 0/48. For the same sequence, the “% of positive microcultures” value ([1]; healthy donor HD9 (first of the two donors named)) was 6%, the “% of positive microcultures” value ([1]; healthy donor HD17 (second of the two donors named)) was 7% and the “donors in which CD4 responses against the region were detected” value [1] was 2/7.
For PWHPSERISSTLNDECWPASL [MELOE-126-46], the “mean % of TNF-α producing CD4 T cells” value ([1]; donor HD9) was “(1.5% ± 0.5)”, the “Microcultures containing MELOE-1 specific CD4+ T cells (TNF-α production)” value [1, 4] was 5/96 and the “mean % of TNF-α producing CD4 T cells” value ([1]; donor HD17) was “(5.2% ± 4.1)”. For the same sequence, the “Microcultures containing MELOE-1 specific CD4+ T cells (TNF-α production)” value [1, 5] was 10/96, the “mean % of TNF-α producing CD4 T cells” value ([1]; donor HD22) was “(1% ± 0.1)” and the “Microcultures containing MELOE-1 specific CD4+ T cells (TNF-α production)” value [1, 6] was 2/96. The “Microcultures containing MELOE-1 specific CD4+ T cells (TNF-α production)” value [1, 7] was 0/96, the “mean % of TNF-α producing CD4 T cells” value ([1]; donor HD25) was “(1.1% ± 0.9)” and the “Microcultures containing MELOE-1 specific CD4+ T cells (TNF-α production)” value [1, 8] was 15/96. For the same sequence, the “Microcultures containing MELOE-1 specific CD4+ T cells (TNF-α production)” value [1, 9] was 0/96, the “Microcultures containing MELOE-1 specific CD4+ T cells (TNF-α production)” value ([1]; donor HD28 (DRβ1*0301)) was 0/96 and the “donors in which CD4 responses against the region were detected” value [1] was 4 out of 7. For the same sequence, the “Cytokine profile: GM-CSF” value [2] was “GM-CSF^high”, the “Cytokine profile: IFN” value [2] was “IFN^high” and the “Cytokine profile: IL2” value [2] was “IL2^high”. The “Cytokine profile: IL4” value [2] was “IL4^high”, the “Cytokine profile: IL5” value [2] was “IL5^low” and the “Cytokine profile: IL10” value [2] was “IL10^neg”. The “Cytokine profile: IL13” value [2] was “IL13^high” and the “Cytokine profile: TNF” value [2] was “TNF^high”.
“AACPPWHPSERISSTLNDECWPASL [MELOE-122-46]” was tested, and the “Th1 responses, % of tested microcultures” value ([3]; 576 tested microcultures from melanoma patients, IFN-γ) was 9.6%, the “patients in which Th2 responses were detected” value ([3]; melanoma patients, IL4) was 5/9 and the “patients in which CD4 responses specific for the region were detected” value ([3]; melanoma patients, Table III, Th1 (IFN-γ)) was 5/9. The “mean % of cytokine producing CD4 T cells, in positive microcultures (IFN-γ)” value (“mean % … (IFN-γ)” below) ([3]; patient Pt ≠ 1) was “(4.8% ± 7.2)”, the “mean % of cytokine producing CD4 T cells, in positive microcultures (IL4)” value (from here on “mean % of cytokine producing CD4 T cells … (IL4)”) ([3]; patient Pt ≠ 1) was “(0.8% ± 0.3)” and the “Th1 responses (IFN-γ positive microcultures)” value ([3]; patient Pt ≠ 1) was 11/48. The “Th2 responses (IL4 positive microcultures)” value ([3]; patient Pt ≠ 1) was 4/48, the “mean % … (IFN-γ)” value ([3]; patient Pt ≠ 2) was “(0.6% ± 0.02)” and the “Th1 responses (IFN-γ positive microcultures)” value ([3]; patient Pt ≠ 2) was 2/96. For the same sequence, the “Th2 responses (IL4 positive microcultures)” value ([3]; patient Pt ≠ 2) was 0/96, the “Th1 responses (IFN-γ positive microcultures)” value ([3]; patient Pt ≠ 3 (DPβ1*0201/2001, DQβ1*0303/0501, DRβ1*0101/0701)) was 4/96 and the “mean % … (IFN-γ)” value ([3]; patient Pt ≠ 3) was “(1.9% ± 1.3)”. The “Th2 responses (IL4 positive microcultures)” value ([3]; patient Pt ≠ 3) was 0/96, the “Th1 responses (IFN-γ positive microcultures)” value ([3]; patient Pt ≠ 4) was 0/48 and the “Th2 responses (IL4 positive microcultures)” value ([3]; patient Pt ≠ 4) was 0/48. For the same sequence, the “mean % of cytokine producing CD4 T cells … (IL4)” value ([3]; patient Pt ≠ 5) was “(0.8%)”, the “Th1 responses (IFN-γ positive microcultures)” value ([3]; patient Pt ≠ 5) was 0/48 and the “Th2 responses (IL4 positive microcultures)” value ([3]; patient Pt ≠ 5) was 1/48. For the same sequence, the “Th1 responses (IFN-γ positive microcultures)” value ([3]; patient Pt ≠ 6) was 0/48, the “Th2 responses (IL4 positive microcultures)” value ([3]; patient Pt ≠ 6) was 0/48 and the “mean % … (IFN-γ)” value ([3]; patient Pt ≠ 7) was “(2.9% ± 3.5)”. For the same sequence, the “mean % of cytokine producing CD4 T cells … (IL4)” value ([3]; patient Pt ≠ 7) was “(1.5% ± 0.7)”, the “Th1 responses (IFN-γ positive microcultures)” value ([3]; patient Pt ≠ 7) was 28/48 and the “Th2 responses (IL4 positive microcultures)” value ([3]; patient Pt ≠ 7) was 7/48. The “mean % … (IFN-γ)” value ([3]; patient Pt ≠ 8) was “(0.5%)”, the “mean % of cytokine producing CD4 T cells … (IL4)” value ([3]; patient Pt ≠ 8) was “(0.6%)” and the “Th1 responses (IFN-γ positive microcultures)” value ([3]; patient Pt ≠ 8) was 1/48. For the same sequence, the “Th2 responses (IL4 positive microcultures)” value ([3]; patient Pt ≠ 8) was 1/48, the “mean % of cytokine producing CD4 T cells … (IL4)” value ([3]; patient Pt ≠ 9) was “(0.7% ± 0.15)” and the “Th1 responses (IFN-γ positive microcultures)” value ([3]; patient Pt ≠ 9) was 0/48. For the same sequence, the “Th2 responses (IL4 positive microcultures)” value ([3]; patient Pt ≠ 9) was 3/48.
